Measured values as given in PubChem BioAssay AID330 (DTP/NCI, 2004).
“And” between values parts separate entries of the source, which are not always exact repeats. Identical values can stand only once. Inconclusive results and toxic doses are left out. Peptide text beside a SMILES is read from it.

System: P388 leukemia ip, CD2F1 mice, survival T/C
Assay: NCI In Vivo Anticancer Drug Screen. Data for tumor model P388 Leukemia (intraperitoneal) in CD2F1 (CDF1) mice
Conditions: endpoint: median survival time, higher = longer survival
Outline: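 Mice carrying the transplanted tumor received test compound or vehicle. Survival was recorded in each group, and the value is the treated-group measurement divided by that of the vehicle-treated control group.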

[1] = dose: 50.0 mg/kg/injection, schedule: Q01DX005 (ip), vehicle: Klucel (hydroxypropylcellulose) (HPC)
[2] = dose: 50.0 mg/kg/injection, schedule: Q01DX005 (ip), vehicle: saline with Tween-80
[3] = dose: 50.0 mg/kg/injection, schedule: Q01DX009 (ip), vehicle: saline
[4] = dose: 100.0 mg/kg/injection, schedule: Q01DX009 (ip), vehicle: saline
[5] = dose: 100.0 mg/kg/injection, schedule: Q01DX001 (ip), vehicle: saline
[6] = dose: 200.0 mg/kg/injection, schedule: Q01DX001 (ip), vehicle: saline
[7] = dose: 400.0 mg/kg/injection, schedule: Q01DX001 (ip), vehicle: saline
[8] = dose: 25.0 mg/kg/injection, schedule: Q01DX009 (ip), vehicle: saline with Tween-80
[9] = dose: 50.0 mg/kg/injection, schedule: Q01DX009 (ip), vehicle: saline with Tween-80
[10] = dose: 100.0 mg/kg/injection, schedule: Q01DX009 (ip), vehicle: saline with Tween-80
[11] = dose: 12.5 mg/kg/injection, schedule: Q01DX005 (ip), vehicle: saline with Tween-80
[12] = dose: 25.0 mg/kg/injection, schedule: Q01DX005 (ip), vehicle: saline with Tween-80
[13] = dose: 12.5 mg/kg/injection, schedule: Q04DX003 (ip), vehicle: saline
[14] = dose: 25.0 mg/kg/injection, schedule: Q04DX003 (ip), vehicle: saline
[15] = dose: 200.0 mg/kg/injection, schedule: Q01DX009 (ip), vehicle: saline with Tween-80
[16] = dose: 200.0 mg/kg/injection, schedule: Q01DX009 (ip), vehicle: saline

CC(C)CC(NC(=O)C(Cc1ccccc1)NC(=O)CNC(=O)CN)C(=O)O (configuration not stated) (H-GGFL-OH; configuration not given here)
T/C (dose: 12.5 mg/kg/injection, schedule: Q01DX005 (ip), vehicle: water): 100 % of control
T/C (dose: 25.0 mg/kg/injection, schedule: Q01DX005 (ip), vehicle: water): 100 % of control
T/C (dose: 50.0 mg/kg/injection, schedule: Q01DX005 (ip), vehicle: water): 96 % of control
T/C (dose: 100.0 mg/kg/injection, schedule: Q01DX005 (ip), vehicle: water): 102 % of control
T/C (dose: 200.0 mg/kg/injection, schedule: Q01DX005 (ip), vehicle: water): 96 % of control

CC(C)c1ccc([C](C)(CC(C)(C)C)[Sn]([CH3])([CH3])[CH3])cc1 (configuration not stated)
T/C (dose: 3.13 mg/kg/injection, schedule: Q04DX003 (ip), vehicle: Klucel (hydroxypropylcellulose) (HPC)): 105 % of control
T/C (dose: 6.25 mg/kg/injection, schedule: Q04DX003 (ip), vehicle: Klucel (hydroxypropylcellulose) (HPC)): 92 % of control
T/C (dose: 12.5 mg/kg/injection, schedule: Q04DX003 (ip), vehicle: Klucel (hydroxypropylcellulose) (HPC)): 91 % of control

Cc1[nH]c(/N=C/c2ccc(N(C)C)cc2)c(C#N)c1C
T/C (dose: 60.0 mg/kg/injection, schedule: Q01DX005 (ip), vehicle: saline with Tween-80): 91 % of control
T/C (dose: 120.0 mg/kg/injection, schedule: Q01DX005 (ip), vehicle: saline with Tween-80): 90 % of control
T/C (dose: 240.0 mg/kg/injection, schedule: Q01DX005 (ip), vehicle: saline with Tween-80): 97 % of control

Cn1c(=O)c2snnc2n(C)c1=O
T/C (dose: 100.0 mg/kg/injection, schedule: Q04DX003 (ip), vehicle: Klucel (hydroxypropylcellulose) (HPC)): 107 % of control
T/C (dose: 200.0 mg/kg/injection, schedule: Q04DX003 (ip), vehicle: Klucel (hydroxypropylcellulose) (HPC)): 104 % of control

Nc1nc(C2CCCC2)c(Br)c(=O)[nH]1
T/C [1]: 101 % of control
T/C (dose: 100.0 mg/kg/injection, schedule: Q01DX005 (ip), vehicle: Klucel (hydroxypropylcellulose) (HPC)): 103 % of control
T/C (dose: 200.0 mg/kg/injection, schedule: Q01DX005 (ip), vehicle: Klucel (hydroxypropylcellulose) (HPC)): 105 % of control

FC(F)(F)c1cccc(-n2nnnc2Oc2ccc(-c3ccccc3)cc2)c1
T/C [2]: 97 % of control
T/C (dose: 100.0 mg/kg/injection, schedule: Q01DX005 (ip), vehicle: saline with Tween-80): 101 % of control
T/C (dose: 200.0 mg/kg/injection, schedule: Q01DX005 (ip), vehicle: saline with Tween-80): 90 % of control

Cc1nc2[nH]c(=S)[nH]c(=O)c2[nH]c1=O
T/C (dose: 12.5 mg/kg/injection, schedule: Q01DX009 (ip), vehicle: saline): 97 % of control
T/C (dose: 25.0 mg/kg/injection, schedule: Q01DX009 (ip), vehicle: saline): 114 % of control
T/C [3]: 120 % of control
T/C [4]: 120 % of control

CCOC(=O)C1C(=O)C(=O)OC1CC(C)C (configuration not stated)
T/C (dose: 12.5 mg/kg/injection, schedule: Q01DX005 (ip), vehicle: Klucel (hydroxypropylcellulose) (HPC)): 109 % of control
T/C (dose: 25.0 mg/kg/injection, schedule: Q01DX005 (ip), vehicle: Klucel (hydroxypropylcellulose) (HPC)): 103 % of control
T/C [1]: 107 % of control and 113 % of control

C=C1CC2(C=C(C)CCC2C(C)C)OC1=O (configuration not stated)
T/C [5]: 101 % of control
T/C [6]: 101 % of control
T/C [7]: 101 % of control

CCN(CC)P(c1ccccc1)N(CC)CC
T/C [5]: 101 % of control
T/C [6]: 111 % of control
T/C [7]: 104 % of control

CCCCC(CN(C)C)C(=O)/C=C/c1ccccc1 (configuration not stated)
T/C (dose: 60.0 mg/kg/injection, schedule: Q01DX005 (ip), vehicle: saline): 109 % of control
T/C (dose: 120.0 mg/kg/injection, schedule: Q01DX005 (ip), vehicle: saline): 123 % of control

CCOC(=O)Nc1cc2c(c(N)n1)N=C(c1ccc(Cl)c(Cl)c1)CN2
T/C (dose: 5.0 mg/kg/injection, schedule: Q01DX005 (ip), vehicle: saline with Tween-80): 121 % of control
T/C (dose: 10.0 mg/kg/injection, schedule: Q01DX005 (ip), vehicle: saline with Tween-80): 158 % of control

CCC(c1ccc(OC)cc1)C(CC)c1ccc(O)c(CN2CCN(C)CC2)c1 (configuration not stated)
T/C [8]: 123 % of control
T/C [9]: 119 % of control
T/C [10]: 119 % of control

N#Cc1c(N)nsc1N1CCOCC1
T/C [11]: 98 % of control
T/C [12]: 104 % of control
T/C [2]: 98 % of control

N#Cc1cc2ccccc2nc1SN
T/C (dose: 50.0 mg/kg/injection, schedule: Q01DX005 (ip), vehicle: saline): 100 % of control
T/C (dose: 100.0 mg/kg/injection, schedule: Q01DX005 (ip), vehicle: saline): 99 % of control
T/C (dose: 200.0 mg/kg/injection, schedule: Q01DX005 (ip), vehicle: saline): 98 % of control

CN(C)CCCOC1=Nc2ccccc2O/C1=C/c1ccccc1
T/C [13]: 98 % of control
T/C [14]: 94 % of control
T/C (dose: 50.0 mg/kg/injection, schedule: Q04DX003 (ip), vehicle: saline): 97 % of control
T/C (dose: 100.0 mg/kg/injection, schedule: Q04DX003 (ip), vehicle: saline): 97 % of control

CCCC(=O)Nc1ncc([N+](=O)[O-])s1
T/C [9]: 95 % of control
T/C [10]: 100 % of control
T/C [15]: 90 % of control

CCC1CN2CCc3cc(OC)c(OC)cc3C2CC1(O)C#N (configuration not stated)
T/C (dose: 100.0 mg/kg/injection, schedule: Q01DX009 (ip), vehicle: Klucel (hydroxypropylcellulose) (HPC)): 99 % of control
T/C (dose: 200.0 mg/kg/injection, schedule: Q01DX009 (ip), vehicle: Klucel (hydroxypropylcellulose) (HPC)): 102 % of control

CC(N=c1ccccn1O)C(O)c1ccccc1 (configuration not stated)
T/C [3]: 101 % of control
T/C [4]: 97 % of control
T/C [16]: 97 % of control

CCOc1ccc(N2CC(=O)N3CCCN3C(=O)C2)cc1
T/C (dose: 6.25 mg/kg/injection, schedule: Q01DX005 (ip), vehicle: saline with Tween-80): 96 % of control
T/C [11]: 102 % of control
T/C [12]: 100 % of control

CCC1(N(C)C)C(=O)NC(=O)N(C2CCCCC2)C1=O (configuration not stated)
T/C (dose: 60.0 mg/kg/injection, schedule: Q01DX005 (ip), vehicle: Klucel (hydroxypropylcellulose) (HPC)): 98 % of control
T/C (dose: 120.0 mg/kg/injection, schedule: Q01DX005 (ip), vehicle: Klucel (hydroxypropylcellulose) (HPC)): 96 % of control
T/C (dose: 240.0 mg/kg/injection, schedule: Q01DX005 (ip), vehicle: Klucel (hydroxypropylcellulose) (HPC)): 91 % of control

COc1cc(/C=C2\CN(C)C(=O)C2=O)ccc1O
T/C [9]: 100 % of control
T/C [10]: 108 % of control
T/C [15]: 109 % of control
T/C (dose: 400.0 mg/kg/injection, schedule: Q01DX009 (ip), vehicle: saline with Tween-80): 108 % of control

Br/C(C=Nc1ccccc1)=C\Nc1ccccc1
T/C (dose: 100.0 mg/kg/injection, schedule: Q04DX003 (ip), vehicle: saline with Tween-80): 118 % of control
T/C (dose: 200.0 mg/kg/injection, schedule: Q04DX003 (ip), vehicle: saline with Tween-80): 109 % of control
T/C (dose: 400.0 mg/kg/injection, schedule: Q04DX003 (ip), vehicle: saline with Tween-80): 104 % of control

C[n+]1ccc2ccccc2c1C#N
T/C [13]: 106 % of control
T/C [14]: 98 % of control

COC(=O)C(N)CCCCNc1ccc2c(cc1=O)C(NC(C)=O)CCc1cc(OC)c(OC)c(OC)c1-2 (configuration not stated)
T/C [8]: 119 % of control
T/C (dose: 53.0 mg/kg/injection, schedule: Q01DX009 (ip), vehicle: saline): 117 % of control
T/C (dose: 80.0 mg/kg/injection, schedule: Q01DX009 (ip), vehicle: saline): 117 % of control
T/C (dose: 270.0 mg/kg/injection, schedule: Q01DX009 (ip), vehicle: saline): 150 % of control

CC(=O)Nc1ccc2c(c1)Cc1cccc(NC(C)=O)c1-2
T/C [3]: 105 % of control
T/C [4]: 110 % of control
T/C [16]: 115 % of control

Cc1cc[c]([Sb]2([c]3ccc(C)cc3)([c]3ccc(C)cc3)[NH]c3cc(C(c4ccccc4)(c4ccccc4)c4ccccc4)cc(C(C)(C)C)c3[O]2)cc1
T/C [9]: 94 % of control
T/C [10]: 92 % of control
T/C [15]: 99 % of control
